According to patent publication US20250262167A1, “COMPOUNDS, TARGETS AND PATHWAYS FOR MACROPHAGE MODULATION” (Massachusetts Institute of Technology, priority 2020, published 2025):
Where a name gives a salt, the structure may show the parent alone. Read-outs that look alike come from different tables or passages of the source.

How the values were obtained:
[1] = system: hMDMs differentiated into M2 by IL-4 plus IL-13; test: Reprogramming screen and dosage response on M2-like differentiated macrophages;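 note: human monocyte-derived macrophages held 24 h in 5 ng/mL IL-4 plus IL-13 before 24 h compound exposure, with cell shape measured from images in 384-well plates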
[2] = system: hMDMs differentiated into M2 by IL-4 plus IL-13; conditions: differentiated macrophages;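 note: human monocyte-derived macrophages held 24 h in 5 ng/mL IL-4 plus IL-13 before 24 h compound exposure, with cell shape measured from images in 384-well plates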
M0 macrophages (hMDMs) = test: Dosage response of cell shape change on M0 macrophages; assay type: cell-based, human
[3] = system: M1-like and M2-like differentiated hMDMs; test: RNA-seq of differentiated macrophages reprogrammed by compounds; assay type: cell-based, human; conditions: compound at EC, 24 hours
Method: FIGS. 4A-4F show reprogramming of differentiated macrophages by selected compounds. […] Controls include two differentiated M1 and M2 macrophages, M2 macrophages treated with IFNγ and M1 macrophages treated with IL-4. Gene expression in each sample was measured by RNA-seq separately. […] FIG. 4D show network of GO enriched terms using BiNGO on top 10% central hubs genes (n=1255) of macrophage activation network. Node color and size represent the FDR values of enriched GO terms. […] Shared (FIG. 4E) and unique pathways (FIG. 4F) are shown. Compound targets and FDA-approval information are indicated. […]
Differentially expressed genes were annotated using online functional enrichment analysis tool DAVID (http://david.ncifcrf.gov/). […] To quantify the levels of RNA transcripts, total RNA was extracted from various cells and reverse transcribed by TaqMan® Reverse Transcription Reagents Kit (ABI Catalog No. N8080234), followed by amplification with Sybr Green Master Mix (Roche Catalog No. 04707516001) with specific primers (Table 4) and detected by Roche LightCycler 480. […]
To determine the central hubs of all stimulation conditions by compounds (refer to FIG. 4) reflecting the core macrophage activation network, transcriptional interactions between genes were first determined by ARACNe based on the perturbed transcriptional profiles of 34 compounds as well as IFNγ and IL4 controls. […]

[4] = system: hMDMs differentiated into M1 by IFNγ plus TNFα; test: Reprogramming screen and dosage response on M1-like differentiated macrophages; assay type: cell-based, human; conditions: Homo sapiens, Macrophage, 24 h; M2-activating compounds on M1-like macrophages (IFNγ plus TNFα); EC = concentration reaching Z-score cutoff
Method: Data were summarized from 3 independent experiments.
Human macrophages were seeded into optical 384-well plates. Sixteen hours later, medium in M1 plates were replaced by M1 differentiating medium (complete RPMI with 50 ng/mL IFNγ and 50 ng/mL TNFα) and medium in M2 plates by M2 differentiating medium (complete RPMI with 5 ng/mL IL-4 and 5 ng/mL IL-13). After 24 hrs cell differentiation, M1 plates (M1 macrophages) and M2 plates (M2 macrophages) were treated with M2-activating compounds and M1-activating compounds respectively for 24 hrs. Two independent experiments were performed with or without replacing differentiating medium right before treatment. Cell imaging and analysis were performed as indicated above.
To investigate whether the identified compounds could reprogram or reactivate macrophages after M1- or M2-like differentiation, we rescreened the hits on M1- or M2-activated macrophages. hMDMs were activated into M2-like macrophages by IL-4 plus IL-13 or M1-like macrophages by IFNγ plus TNFα. […] 24 hours later, cell images were taken and cell shapes were quantified.
We also rescreened the hits on differentiated macrophages in the presence of differentiating cytokines: either IL-4 plus IL-13 or IFNγ plus TNFα.

[5] = system: bone marrow derived macrophages (BMDMs); test: Seahorse ECAR (glycolysis) in BMDMs; assay type: cell-based, mouse; conditions: macrophages, NOX inhibition
Method: FIGS. 21A-21I show DPI stimulates glycolysis through GPR3 and β-arrestin2. FIGS. 21A-21B show DPI-stimulated glycolysis is independent of the NOX activity. […] The mean fluorescence intensity (MFI) of 2-NBDG in cells was measured by flow cytometry and normalized to DMSO controls of wildtype BMDMs. Data are presented as the mean±sd (n=3). […] ImKCs were transfected with siRNA specific for Gpr3 or a scramble siRNA as control. […] Data are presented as the mean±sd (n=4). […] Data are presented as the mean±sd (n=12). […] Abbr2^−/− ImKC were constructed by CRISPR-Cas9-mediated gene editing. […] Data are presented as the mean±sd (n=4). […]
Specific parameters for glycolytic capacity and glycolytic reserve were calculated and summarized based on two independent experiments. […]
FIGS. 29A-29B show comparison of DPI's effect on glycolysis in wild-type and Pkm^−/− BMDMs. […] ImKCs were treated with DMSO or DPI alone (500 nM) or DPI plus ERK1/2 inhibitor (SCH772984, […]) for 6 hrs and the enzymatic activities of PKM2 (c) and GAPDH (d) were measured by colorimetric assay kits (Biovision). […]
OCR and ECAR were measured in isolated tissues or cultured ImKCs using the Seahorse XFe Extracellular Flux Analyzer (Agilent). […] Glucose levels were determined using a glucose (GO) assay kit (Sigma). […] Lactate levels were determined using a lactate assay kit (Eton Bioscience). […]

PKM2 = test: PKM enzymatic activity (colorimetric kit) in treated ImKCs; assay type: cell-based, mouse; conditions: ERK1/2 phosphorylation inhibited
Method: Data are presented as the mean±sd (n=4). […] Data are presented as the mean±sd (n=6).
FIGS. 29A-29B show comparison of DPI's effect on glycolysis in wild-type and Pkm^−/− BMDMs. […] FIGS. 29C-29D show activation of PKM2 and GAPDH enzymatic activity by DPI is inhibited by ERK1/2 inhibitor. ImKCs were treated with DMSO or DPI alone (500 nM) or DPI plus ERK1/2 inhibitor (SCH772984, […]) for 6 hrs and the enzymatic activities of PKM2 (c) and GAPDH (d) were measured by colorimetric assay kits (Biovision). Data are presented as the mean±sd (n=6).
The enzymatic activities of PKM and GAPDH were measured using the pyruvate kinase activity assay kit (Biovision, #K709) and GAPDH activity assay kit (Biovision, #K680) according to the manufacturer's protocols, respectively.

`CCCCCCCCc1ccc(CCC(N)(CO)CO)cc1` [FTY720] was tested, and the EC (M1 Z-score cutoff) ([1]; Homo sapiens, Macrophage, 24 h, read-out: EC) was 0.131 µM, the Category [2] was “M1 (−4 for M1-activated macrophages)” and the “Max absolute Z-value” (M0 macrophages (hMDMs)) was −11.58. For the same molecule, the Category (M0 macrophages (hMDMs); M0 macrophages) was “M1 (−4 for M1-activated macrophages)”.

For `Nc1ccccc1NC(=O)c1ccc(CNC(=O)OCc2cccnc2)cc1` [MS275], the EC ([1]; M1-activating compounds on M2-like macrophages (IL-4 plus IL-13), EC = concentration reaching Z-score cutoff) was 0.811 µM, the Category ([1]; differentiated macrophages) was “M1 (−4 for M1-activated macrophages)” and the unique pathway perturbed [3] was “perturbed the pathway of chromatin assembly”. For the same molecule, the Category (M0 macrophages (hMDMs); M0 macrophages) was “M1 (−4 for M1-activated macrophages)”, the EC (M0 macrophages (hMDMs); M0 macrophages, EC = concentration inducing cell morphology changes to reach the M1 or M2 Z-score cutoff, Michaelis-Menten fit, 3 independent experiments, unit of the source corrected) was 1.05 µM and the “Max absolute Z-value” (M0 macrophages (hMDMs); M0 macrophages, Max Z-score from Michaelis-Menten equation, negative = round, positive = elongated) was −7.993.

In the case of `C(=N\NC1=NCCN1)/c1c2ccccc2c(/C=N/NC2=NCCN2)c2ccccc12` [Bisantrene dihydrochloride], the unique pathway perturbed [3] is reported as “perturbed the pathway of DNA topological change” and the EC (M2 Z-score cutoff) [4] is reported as 1.98 µM.

For `COc1cc(C(C)=O)ccc1O` [apocynin], the “basal level of glycolytic activity” value [5] was “significantly reduced” and the “DPI's effect on PKM2 enzymatic activity” value (PKM2) was “abolished”.
